Reference: patent US20260355177A1, “TREATMENT FOR APLASTIC ANEMIA (AA)” (ZYDUS LIFESCIENCES LIMITED, priority 2022, published 2026)

How the values were obtained:
[1] = test system: busulphan-induced aplastic anemia in Balb/c mice; experiment: Busulphan-induced aplastic anemia in Balb/c mice: white blood cell (WBC) and platelet count; format: in vivo; conditions: after 44 days of treatment; Formula (Ia) 15 mg/kg PO daily; Romiplostim 50 μg/kg SC once a week; mean±SEM, n=6
Procedure: Aplastic anemia (AA) was induced in BALB/c mice by administration of busulphan (BU). BU was dissolved in acetone at concentrations of 5-10 mg/mL. Immediately before administration, deionized water was added to the BU-acetone solution and the solution was given by intraperitoneal (ip) injection at dose of 9 mg/kg. Control mice were given vehicle at the same dose volume.^9 Compound of formula (Ia) (15 mg/kg, PO, daily) and Romiplostim (50 μg/kg, SC, once a week) combination were administered.
Mice were be dosed with vehicle or BU on 10 occasions over a period of 21 days (days 1, 3, 6, 8, 10, 13, 15, 17, 19 and 21). Between 1 to 127 days after the final BU dose, mice from each group were autopsied for blood.^9
The changes in the white blood cell (WBC) and platelet count were measured after 44 days of treatment. Data are mean±SEM (n=6 for each group).

[2] = test system: cyclophosphamide-induced aplastic anemia in C57 mice; experiment: Cyclophosphamide-induced aplastic anemia in C57 mice: white blood cell (WBC) and platelet count; format: in vivo; conditions: after 11 days of treatment; Formula (Ia) 15 mg/kg PO daily; Romiplostim 30 μg/kg SC once a week; mean±SEM, n=6
Procedure: Aplastic anemia (AA) was induced in C57 mice by administration of cyclophosphamide. Cyclophosphamide was dissolved in deionized water at concentrations of 20 mg/mL. Immediately before administration, deionized water was added to the stock solution and the solution was given by intraperitoneal (ip) injection at dose of 100 mg/kg. Mice were dosed with vehicle or cyclophosphamide for 4 days. Control mice were given vehicle at the same dose volume.^10 Compound of formula (Ia) (15 mg/kg, PO, daily) and Romiplostim (30 μg/kg, SC, once a week) combination were administered.
Blood was collected from each group after 11 days of treatment. The changes in the white blood cell (WBC) and platelet count were measured. Data are mean±SEM (n=6 for each group).

Compound | Platelets [1] | Platelets % Change against vehicle control [1] | WBC [1] | WBC % Change against vehicle control [1] | Platelets [2] | Platelets % Change against vehicle control [2] | WBC [2] | WBC % Change against vehicle control [2]
Romiplostim | 1257.0 10^3/uL | 142.7% | 4.2 10^3/uL | 79.3% | – | – | – | –
O=C(O)CNC(=O)c1c(O)c2ccccc2n(OCC2CC2)c1=O [Formula (Ia)] | 676.2 10^3/uL | 30.6% | 2.6 10^3/uL | 10.9% | 742.3 10^3/uL | 32.1% | 7.0 10^3/uL | 10.1%
